Results reported in patent US20260158009A1 (GENZYME CORPORATION, priority 2023, published 2026).

How the values were obtained:
U937 cells = experiment: Cellular assay in U937 cells: activity of RIPK1 inhibitors on TNFα/zVAD.fmk-induced cell death (necroptosis), CellTiter 96 AQueous (MTS) readout; type: cell-based; details: Homo sapiens, U-937
Method in brief: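 Necroptosis was measured by viable-cell MTS reduction (4 h, absorbance 490 nm) after overnight (18–24 h) 37° C culture. Cell suspensions of U937 cells carried TNFα (100 ng/ml) plus zVAD.fmk (50 μM) before compound was added. A 10-point curve (10 μM–0.26 nM or 1 μM–0.07 nM) was run in duplicate, normalised to the control lacking TNFα/zVAD.fmk.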

[1] = target: T1, hRIPK1 (aa 1-375) fusion protein (Homo sapiens, UniProt Q13546); experiment: ADP-Glo kinase assay: catalytic activity of RIPK1 (autophosphorylation, conversion of ATP to ADP); type: biochemical
T1 construct: hRIPK1 (aa 1-375) fusion protein
T1 sequence (Q13546 1-375): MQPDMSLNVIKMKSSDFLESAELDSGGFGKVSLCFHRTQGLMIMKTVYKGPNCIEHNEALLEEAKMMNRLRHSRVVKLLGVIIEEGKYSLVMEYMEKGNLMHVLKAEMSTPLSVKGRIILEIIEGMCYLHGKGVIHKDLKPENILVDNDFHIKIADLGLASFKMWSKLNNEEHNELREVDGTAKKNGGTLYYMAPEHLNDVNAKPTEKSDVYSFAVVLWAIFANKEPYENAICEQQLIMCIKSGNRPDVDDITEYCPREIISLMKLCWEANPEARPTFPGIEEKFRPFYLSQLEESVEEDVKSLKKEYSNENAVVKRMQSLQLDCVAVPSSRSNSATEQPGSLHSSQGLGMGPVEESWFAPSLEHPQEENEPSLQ
Method in brief: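 hRIPK1 (aa 1-375) fusion protein (3.6 μg/ml final) was preincubated 30 min at rt with compound (33300-1.69 nM, 1% DMSO), then 50 μM ATP was added for 240 min at rt. ADP from autophosphorylation was measured by ADP-Glo luminescence and curves fitted by nonlinear regression.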

| Compound | IC50 (U937 cells) [nM] | IC50 [1] [nM] |
| --- | --- | --- |
| N#Cc1cc(F)cc([C@@H]2CCON2C(=O)[C@H]2CC[C@H](Cc3ccc(CO)c(F)c3)CC2)c1 [compound 266, trans-3-fluoro-5-[(3S)-2-[4-[[3-fluoro-4-(hydroxymethyl)phenyl]methyl]cyclohexanecarbonyl]isoxazolidin-3-yl]benzonitrile] | 1 | 13 |
| Cc1ncc(C[C@H]2CC[C@H](C(=O)N3OCC[C@H]3c3cc(F)cc(F)c3)CC2)cc1C#N [compound 267, trans-5-[[4-[(3S)-3-(3,5-difluorophenyl)isoxazolidine-2-carbonyl]cyclohexyl]methyl]-2-methyl-pyridine-3-carbonitrile] | 2 | 12 |
| Cc1ncc(C[C@H]2CC[C@H](C(=O)N3OCC[C@H]3c3cc(F)cc(C#N)c3)CC2)cc1C#N [compound 268, trans-5-[[4-[(3S)-3-(3-cyano-5-fluoro-phenyl)isoxazolidine-2-carbonyl]cyclohexyl]methyl]-2-methyl-pyridine-3-carbonitrile] | 5 | 12 |
| Cc1ccc(CC23CCC(C(=O)N4OCC[C@H]4c4cc(F)cc(F)c4)(CC2)C3)cc1C(N)=O [compound 269, 5-[[4-[(3S)-3-(3,5-difluorophenyl)isoxazolidine-2-carbonyl]norbornan-1-yl]methyl]-2-methyl-benzamide] | 28 | 13 |
| Cc1ccc(CC23CCC(C(=O)N4OCC[C@H]4c4cc(F)cc(C#N)c4)(CC2)C3)cc1C(N)=O [compound 270, 5-[[4-[(3S)-3-(3-cyano-5-fluoro-phenyl)isoxazolidine-2-carbonyl]norbornan-1-yl]methyl]-2-methyl-benzamide] | 50 | 20 |
| Cc1ccc([C@@H]2CCON2C(=O)C23CCC(Cc4ccc(C)c(C(N)=O)c4)(CC2)C3)cn1 [compound 271, 2-methyl-5-[[4-[(3S)-3-(6-methyl-3-pyridyl)isoxazolidine-2-carbonyl]norbornan-1-yl]methyl]benzamide] | 605 | 97 |
| Cc1ccc([C@@H]2CCON2C(=O)C23CCC(Cc4ccc(C)c(C(N)=O)c4)(CC2)CC3)cn1 [compound 272, 2-methyl-5-[[4-[(3S)-3-(6-methyl-3-pyridyl)isoxazolidine-2-carbonyl]-1-bicyclo[2.2.2]octanyl]methyl]benzamide] | 206 | 29 |
| Cc1ccc(CC23CCC(C(=O)N4OCC[C@H]4c4cc(F)cc(F)c4)(CC2)CC3)cc1C(N)=O [compound 273, 5-[[4-[(3S)-3-(3,5-difluorophenyl)-1,2-oxazolidine-2-carbonyl]-1-bicyclo[2.2.2]octanyl]methyl]-2-methylbenzamide] | 9 | 15 |
| Cc1ccc(CC23CCC(C(=O)N4OCC[C@H]4c4cc(F)cc(C#N)c4)(CC2)CC3)cc1C(N)=O [compound 274, 5-[[4-[(3S)-3-(3-cyano-5-fluoro-phenyl)isoxazolidine-2-carbonyl]-1-bicyclo[2.2.2]octanyl]methyl]-2-methyl-benzamide] | 40 | 9 |
| Cc1c(C#N)cncc1C[C@H]1CC[C@H](C(=O)N2OCC[C@H]2c2cc(F)cc(F)c2)CC1 [compound 275, trans-5-[[4-[(3S)-3-(3,5-difluorophenyl)isoxazolidine-2-carbonyl]cyclohexyl]methyl]-4-methyl-pyridine-3-carbonitrile] | 9 | 8 |
| Cc1c(C#N)cncc1C[C@H]1CC[C@H](C(=O)N2OCC[C@H]2c2cc(F)cc(C#N)c2)CC1 [compound 276, trans-5-[[4-[(3S)-3-(3-cyano-5-fluoro-phenyl)isoxazolidine-2-carbonyl]cyclohexyl]methyl]-4-methyl-pyridine-3-carbonitrile] | 9 | 20 |
| Cc1ncc(C#N)cc1C[C@H]1CC[C@H](C(=O)N2OCC[C@H]2c2cc(F)cc(C#N)c2)CC1 [compound 277, trans-5-[[4-[(3S)-3-(3-cyano-5-fluoro-phenyl)isoxazolidine-2-carbonyl]cyclohexyl]methyl]-6-methyl-pyridine-3-carbonitrile] | 4 | 19 |
| Cc1ncc(C#N)cc1C[C@H]1CC[C@H](C(=O)N2OCC[C@H]2c2cc(F)cc(F)c2)CC1 [compound 278, trans-5-[[4-[(3S)-3-(3,5-difluorophenyl)isoxazolidine-2-carbonyl]cyclohexyl]methyl]-6-methyl-pyridine-3-carbonitrile] | 3 | 16 |
| N#Cc1cc(F)cc([C@@H]2CCON2C(=O)[C@H]2CC[C@H](Cc3ccc(CCO)c(F)c3)CC2)c1 [compound 279, trans-3-fluoro-5-[(3S)-2-[4-[[3-fluoro-4-(2-hydroxyethyl)phenyl]methyl]cyclohexanecarbonyl]isoxazolidin-3-yl]benzonitrile] | 9 | 7 |
| O=C([C@H]1CC[C@H](Cc2ccc(CCO)c(F)c2)CC1)N1OCC[C@H]1c1cc(F)cc(F)c1 [compound 280, trans-[(3S)-3-(3,5-difluorophenyl)isoxazolidin-2-yl]-[4-[[3-fluoro-4-(2-hydroxyethyl)phenyl]methyl]cyclohexyl]methanone] | 7 | 13 |
| Cc1cn2cc(C[C@H]3CC[C@H](C(=O)N4OCC[C@H]4c4cc(F)cc(F)c4)CC3)cc(F)c2n1 [compound 281, trans-[(3S)-3-(3,5-difluorophenyl)isoxazolidin-2-yl]-[4-[(8-fluoro-2-methyl-imidazo[1,2-a]pyridin-6-yl)methyl]cyclohexyl]methanone] | 5 | 19 |
| N#Cc1cc(F)cc([C@@H]2CCON2C(=O)[C@H]2CC[C@H](Cc3cc(F)cc(CCO)c3)CC2)c1 [compound 282, trans-3-fluoro-5-[(3S)-2-[4-[[3-fluoro-5-(2-hydroxyethyl)phenyl]methyl]cyclohexanecarbonyl]isoxazolidin-3-yl]benzonitrile] | 10 | 18 |
| O=C([C@H]1CC[C@H](Cc2cc(F)cc(CCO)c2)CC1)N1OCC[C@H]1c1cc(F)cc(F)c1 [compound 283, trans-[(3S)-3-(3,5-difluorophenyl)isoxazolidin-2-yl]-[4-[[3-fluoro-5-(2-hydroxyethyl)phenyl]methyl]cyclohexyl]methanone] | 13 | 16 |
| Cc1nc2c(F)cc(C[C@H]3CC[C@H](C(=O)N4OCC[C@H]4c4cc(F)cc(C#N)c4)CC3)cn2n1 [compound 284, trans-3-fluoro-5-[(3S)-2-[4-[(8-fluoro-2-methyl-[1,2,4]triazolo[1,5-a]pyridin-6-yl)methyl]cyclohexanecarbonyl]isoxazolidin-3-yl]benzonitrile] | 34 | 17 |
| Cc1nc2c(F)cc(C[C@H]3CC[C@H](C(=O)N4OCC[C@H]4c4cc(F)cc(F)c4)CC3)cn2n1 [compound 285, trans-[(3S)-3-(3,5-difluorophenyl)isoxazolidin-2-yl]-[4-[(8-fluoro-2-methyl-[1,2,4]triazolo[1,5-a]pyridin-6-yl)methyl]cyclohexyl]methanone] | 10 | 11 |
| Cc1ncc(C[C@H]2CC[C@H](C(=O)N3OCC[C@H]3c3cc(F)c(C)c(C#N)c3)CC2)cc1C#N [compound 286, trans-5-[[4-[(3S)-3-(3-cyano-5-fluoro-4-methyl-phenyl)isoxazolidine-2-carbonyl]cyclohexyl]methyl]-2-methyl-pyridine-3-carbonitrile] | 1 | 1 |
| Cc1c(F)cc([C@@H]2CCON2C(=O)[C@H]2CC[C@H](Cc3cncc(C#N)c3C)CC2)cc1C#N [compound 287, trans-5-[[4-[(3S)-3-(3-cyano-5-fluoro-4-methyl-phenyl)isoxazolidine-2-carbonyl]cyclohexyl]methyl]-4-methyl-pyridine-3-carbonitrile] | 1 | 2 |
| Cc1nc2c(C)cc(C[C@H]3CC[C@H](C(=O)N4OCC[C@H]4c4cc(F)cc(C#N)c4)CC3)cn2n1 [compound 288, trans-3-[(3S)-2-[4-[(2,8-dimethyl-[1,2,4]triazolo[1,5-a]pyridin-6-yl)methyl]cyclohexanecarbonyl]isoxazolidin-3-yl]-5-fluoro-benzonitrile] | 4 | 17 |
| Cc1nc2ccc(C[C@H]3CC[C@H](C(=O)N4OCC[C@H]4c4cc(C#N)ccc4F)CC3)cn2n1 [compound 289, trans-4-fluoro-3-[(3S)-2-[4-[(2-methyl-[1,2,4]triazolo[1,5-a]pyridin-6-yl)methyl]cyclohexanecarbonyl]isoxazolidin-3-yl]benzonitrile] | 733 | 36 |
| Cc1cn2nc(C[C@H]3CC[C@H](C(=O)N4OCC[C@H]4c4cc(F)cc(C#N)c4)CC3)cc(C)c2n1 [compound 290, trans-3-[(3S)-2-[4-[(2,8-dimethylimidazo[1,2-b]pyridazin-6-yl)methyl]cyclohexanecarbonyl]isoxazolidin-3-yl]-5-fluoro-benzonitrile] | 4 | 11 |
